The text below walks through data of patent US8067419B2, “Piperazines as antimalarial agents” (Actelion Pharmaceuticals Ltd., priority 2005, dated 2011).

Structures are written as SMILES.

The test system of this assay is P. falciparum K1. In words: Plasmodium falciparum in vitro assay ([3H] hypoxanthine incorporation). The format is cell-based. Conditions: 72 h, erythrocytic stages of P. falciparum K1 (strain resistant to chloroquine and pyrimethamine), human red cells, 48 h + 24 h with [3H] hypoxanthine. How it is done:
In vitro activity against erythrocytic stages of P. falciparum is determined using a [^3H] hypoxanthine incorporation assay. One strain resistant to chloroquine and pyrimethamine (P. falciparum K1) is used in the assays, and all test compounds are compared for activity with the standard drugs chloroquine (sigma C6628) and artemisinin (sigma-36, 159-3). Compounds are diluted in DMSO to 1 mM and added to parasite cultures incubated in RPMI 1640 medium without hypoxanthine, supplemented with HEPES (5.94 g/L), NaHCO3 (2.1 g/L), neomycin (100 U/mL), Albumax (5 g/L) and washed human red cells at 2.5% haematocrit (0.3% parasitaemia). Seven serial doubling dilutions of each drug are prepared in 96-well microtitre plates and incubated in a humidifying atmosphere at 37° C.; 4% CO2, 3% O2, 93% N2.
After 48 hours, 50 μl of [^3H] hypoxanthine (0.5 μCi) is added to each well of a plate. The plates are incubated for a further 24 hours under the same conditions. The plates are then harvested with a Betaplate cell harvester (Wallac) and washed with distilled water. The dried filters are inserted into a plastic foil with 10 mL of scintillation fluid, and counted in a Betaplate liquid scintillation counter. IC50 values are calculated from sigmoidal inhibition curves using Microsoft Excel.
Regarding `C[C@@H]1CC[C@H]2[C@@H](C)C(=O)O[C@@H]3O[C@@]4(C)CC[C@@H]1[C@]32OO4` [Artemisinin, artemisinin, reference compound], the IC50 – broadly, the concentration at which inhibition is half-maximal – came out at 2 nM.
As for `CCCCCc1ccc(CN(C(=O)/C=C/c2ccc(C(F)(F)F)cc2)[C@@H](Cc2ccccc2)C(=O)N2CCN(Cc3ccccc3)CC2)cc1` [Example 1, N—[(S)-1-benzyl-2-(4-benzyl-piperazin-1-yl)-2-oxo-ethyl]-N-(4-pentyl-benzyl)-3-(4-trifluoromethyl-phenyl)-acrylamide], the IC50 was 3.8 nM.
As to `CCCCCc1ccc(CN(C(=O)/C=C/c2cccc(C(F)(F)F)c2)[C@@H](Cc2ccccc2)C(=O)N2CCN(Cc3ccccc3)CC2)cc1` [Example 2, N—[(S)-1-benzyl-2-(4-benzyl-piperazin-1-yl)-2-oxo-ethyl]-N-(4-pentyl-benzyl)-3-(3-trifluoromethyl-phenyl)-acrylamide], the concentration for half-maximal inhibition (IC50) stood at 70 nM.
Consider `CCCCCc1ccc(CN(C(=O)/C=C/c2ccccc2C(F)(F)F)[C@@H](Cc2ccccc2)C(=O)N2CCN(Cc3ccccc3)CC2)cc1` [Example 3, N—[(S)-1-benzyl-2-(4-benzyl-piperazin-1-yl)-2-oxo-ethyl]-N-(4-pentyl-benzyl)-3-(2-trifluoromethyl-phenyl)-acrylamide], for which the IC50 stood at 375 nM.
As for `CCCCCc1ccc(CN(C(=O)/C=C/c2ccc(OC)cc2)[C@@H](Cc2ccccc2)C(=O)N2CCN(Cc3ccccc3)CC2)cc1` [Example 4, N—[(S)-1-benzyl-2-(4-benzyl-piperazin-1-yl)-2-oxo-ethyl]-3-(4-methoxy-phenyl)-N-(4-pentyl-benzyl)-acrylamide], the IC50 is 7 nM.
Consider `CCCCCc1ccc(CN(C(=O)/C=C/c2cccc(OC)c2)[C@@H](Cc2ccccc2)C(=O)N2CCN(Cc3ccccc3)CC2)cc1` [Example 5, N—[(S)-1-benzyl-2-(4-benzyl-piperazin-1-yl)-2-oxo-ethyl]-3-(3-methoxy-phenyl)-N-(4-pentyl-benzyl)-acrylamide], for which the IC50 was 19 nM.
`CCCCCc1ccc(CN(C(=O)CCc2cc(C(F)(F)F)cc(C(F)(F)F)c2)[C@@H](Cc2ccccc2)C(=O)N2CCN(Cc3ccccc3)CC2)cc1` [Example 6, N—[(S)-1-benzyl-2-(4-benzyl-piperazin-1-yl)-2-oxo-ethyl]-3-(3,5-bis-trifluoromethyl-phenyl)-N-(4-pentyl-benzyl)-propionamide]: the IC50 was 588 nM.
Regarding `CCCCCc1ccc(CN(C(=O)/C=C/c2ccc(C(F)(F)F)cc2)[C@@H](Cc2ccccc2)C(=O)N2CCN(Cc3ccc(C(F)(F)F)nc3)CC2)cc1` [Example 15], the IC50 came to 11 nM.
Under `CCCCOc1ccc(CN(C(=O)/C=C/c2ccc(C(F)(F)F)cc2)[C@@H](Cc2ccccc2)C(=O)N2CCN(Cc3ccccc3)CC2)cc1` [Example 29, N—[(S)-1-benzyl-2-(4-benzyl-piperazin-1-yl)-2-oxo-ethyl]-N-(4-butoxy-benzyl)-3-(4-trifluoromethyl-phenyl)-acrylamide] stands 7.5 nM; under `CCCCc1ccc(CN(C(=O)/C=C/c2ccc(C(F)(F)F)cc2)[C@@H](Cc2ccccc2)C(=O)N2CCN(Cc3ccccc3)CC2)cc1` [Example 33], 6.9 nM.
Under `CC(C)Cc1ccc(CN(C(=O)/C=C/c2ccc(C(F)(F)F)cc2)[C@@H](Cc2ccccc2)C(=O)N2CCN(Cc3ccccc3)CC2)cc1` [Example 37] stands 18 nM; under `CCCCOc1ccc(CN(C(=O)/C=C/c2ccc(OC)cc2)[C@@H](Cc2ccccc2)C(=O)N2CCN(Cc3ccccc3)CC2)cc1` [Example 38], 11 nM.
Take `COc1ccc(/C=C/C(=O)N(Cc2ccc(OCCCN(C)C)cc2)[C@@H](Cc2ccccc2)C(=O)N2CCN(Cc3ccccc3)CC2)cc1` [Example 43]: the IC50 was 8.3 nM.
Regarding `O=C([C@H](Cc1ccccc1)N(Cc1ccc(-c2ccncc2)nc1)C(=O)/C=C/c1ccc(C(F)(F)F)cc1)N1CCN(Cc2ccccc2)CC1` [Example 125, N—[(S)-1-benzyl-2-(4-benzyl-piperazin-1-yl)-2-oxo-ethyl]-N-[2,4′]bipyridinyl-5-ylmethyl-3-(4-trifluoromethyl-phenyl)-acrylamide], the IC50 is 4.8 nM.
Next, `O=C([C@H](Cc1ccccc1)N(Cc1ccc(N2CCCC2=O)nc1)C(=O)/C=C/c1ccc(C(F)(F)F)cc1)N1CCN(Cc2ccccc2)CC1` [Example 129, N—[(S)-1-benzyl-2-(4-benzyl-piperazin-1-yl)-2-oxo-ethyl]-N-[6-(2-oxo-pyrrolidin-1-yl)-pyridin-3-ylmethyl]-3-(4-trifluoromethyl-phenyl)-acrylamide]: 9.5 nM.
